Assay [1] concerns the target T1, SARS-CoV-2 PLpro (nsp3 1564–1878) (Severe acute respiratory syndrome coronavirus 2, UniProt P0DTD1). The assay can be described thus: biochemical. Further details: FRET-quenched peptide (Pro3) cleavage by PLpro, 10 min pre-incubation, slope over 20 min, normalised to no-compound control. The settings on record: high concentration screen, read-out: % of control remaining.
Description: The plates were organized with columns 3–22 containing the compounds; the remaining columns were used for reaction controls including substrate only and substrate with enzyme but no compound (Figure 3Aii). The PLpro enzyme was pre-incubated with the compounds for 10 min, and then the reaction was initiated by the addition of substrate. […] We incubated the inhibitors with PLpro before the enzymatic reaction so that the slow-binding inhibitors will not be missed out [21]. […] Fluorescence was read on a Spark multimode microplate reader (Tecan) with an excitation wavelength at 330 nm and emission wavelength at 420 nm. […] An amount of 5 µl of the enzyme was pre-incubated with compounds for 10 min before the addition of 15 µl substrate. Fluorescence was monitored at 2 min for 20 min with 3 min intervals giving a total of seven readings.

Assay [2] concerns the target T1, SARS-CoV-2 PLpro (nsp3 1564–1878). As to the kind of experiment: biochemical. Set-up: FRET-quenched peptide (Pro3) cleavage by PLpro, 10 min pre-incubation, slope over 20 min, normalised to no-compound control. The note with it: low concentration screen, read-out: % of control remaining.

The structures appear in SMILES notation. Structures can show the parent of a compound that is named as a salt. Where two headings read alike, the source gives them in different places. Where a SMILES comes first, the peptide text is derived from it. Side-chain parts run from the residue outwards. The star is where a group is joined. Nicotinoyl = O=C(c1cccnc1)*; Cbz = O=C(OCc1ccccc1)*

`CN(C)c1ccc(-c2nc3ncc(Cl)c(N4CCN(CC(=O)Nc5nccs5)CC4)c3[nH]2)cc1` [CCT129202]: in assay [1] (Well no.=5253), the remaining activity at 3.75 µM was 93.9%. Further, the remaining activity at 1.25 µM in assay [2] (Well no.=5253) was found to be 88.1%.
Take `Cc1cc(CN2CCN(c3c(Br)cnc4nc(-c5ccc(N6CCN(C)CC6)cc5)[nH]c34)CC2)no1` [CCT137690]: the remaining activity at 3.75 µM in assay [1] (Well no.=5033) amounted to 99.3%. The remaining activity at 1.25 µM in assay [2] (Well no.=5033) turned out to be 98%.
Consider `NC(=O)c1cc(S(=O)(=O)Nc2ccc3cc(C4CC4)[nH]c3c2)ccc1O` [CD73-IN-1], for which the remaining activity at 3.75 µM in assay [1] (Well no.=8325) came to 94.5%. The remaining activity at 1.25 µM in assay [2] (Well no.=8325) amounted to 95.7%.
Regarding `CN1CCN(c2cccc(Nc3nc4c(-c5ccc(S(C)(=O)=O)cc5)cccn4n3)c2)CC1` [CEP33779], the remaining activity at 3.75 µM in assay [1] (Well no.=5129) turned out to be 106%. In addition, the remaining activity at 1.25 µM in assay [2] (Well no.=5129) was determined as 104%.
Regarding `COC(=O)[C@H](CCCCn1cccc1CCC(=O)O)NC(=O)CNC(C)=O` [CEP dipeptide 1], the remaining activity at 3.75 µM in assay [1] (Well no.=8606) turned out to be 96.4%. For the same molecule, the remaining activity at 1.25 µM in assay [2] (Well no.=8606) was 98.6%.
As to `COc1cc2ncnc(Oc3cccc(NC(=O)Nc4cc(C(C)(C)C(F)(F)F)on4)c3)c2cc1OC` [CEP-32496], the remaining activity at 3.75 µM in assay [1] (Well no.=5362) was 96.8%. Moreover, in assay [2] (Well no.=5362), the remaining activity at 1.25 µM stood at 100%.
As for `COc1cccc(-c2cn(-c3ccc(CCN4CCC(O)CC4)cc3)c3ncnc(N)c23)c1` [CGP77675], the remaining activity at 3.75 µM in assay [1] (Well no.=5466) amounted to 99.9%. In assay [2] (Well no.=5466), the remaining activity at 1.25 µM was found to be 93.4%.
For `Cn1cc(C(F)(F)F)nc1-c1ccc(OCC(O)CNCCOc2ccc(O)c(C(N)=O)c2)cc1` (stereo not shown) [CGP 20712A methanesulfonate], in assay [1] (Well no.=585), the remaining activity at 3.75 µM came out at 106%. For the same molecule, in assay [2] (Well no.=585), the remaining activity at 1.25 µM was found to be 105%.
For the molecule `O=C1NC(=O)c2cc(Nc3ccc(F)cc3)c(Nc3ccc(F)cc3)cc21` [CGP 53353 - 5,6-bis[(4-Fluorophenyl)amino]-1H-isoindole-1,3(2H)-dione], in assay [1] (Well no.=2530), the remaining activity at 3.75 µM is 102%. In addition, in assay [2] (Well no.=2530), the remaining activity at 1.25 µM is 101%.
With `Nc1ncnc2n[nH]c(Nc3ccc(F)cc3)c12` [CGP 57380 - N3-(4-Fluorophenyl)-1H-pyrazolo-[3,4-d]pyrimidine-3,4-diamine], the remaining activity at 3.75 µM in assay [1] (Well no.=2624) turned out to be 92.7%. The remaining activity at 1.25 µM in assay [2] (Well no.=2624) amounted to 92.8%.
Turning to `CC(C)(CO)Cc1cc(C(C)(C)C)c(O)c(C(C)(C)C)c1` [CGP-7930], in assay [1] (Well no.=43), the remaining activity at 3.75 µM worked out at 102%. Also, the remaining activity at 1.25 µM in assay [2] (Well no.=43) is 101%.
With `CC(C)(C=O)Cc1cc(C(C)(C)C)c(O)c(C(C)(C)C)c1` [CGP-13501], in assay [1] (Well no.=91), the remaining activity at 3.75 µM amounted to 105%. Also, in assay [2] (Well no.=91), the remaining activity at 1.25 µM was 105%.
Consider `O=C1CSC(c2ccccc2Cl)c2cc(Cl)ccc2N1` (stereo not shown) [CGP-37157], for which the remaining activity at 3.75 µM in assay [1] (Well no.=5845) turned out to be 106%. In addition, the remaining activity at 1.25 µM in assay [2] (Well no.=5845) is 106%.
Turning to `CC[C@H](C)[C@H](NC(=O)[C@@H]1CCCN1C(=O)[C@H](Cc1cnc[nH]1)NC(=O)[C@H](CCCCNC(=O)[C@H](CCCN=C(N)N)NC(=O)OCc1ccccc1)NC(=O)[C@H](Cc1ccc(O)cc1)NC(=O)c1cccnc1)C(=O)O` [CGP-42112] (Nicotinoyl-YK([Arg-Cbz])HPI-OH), the remaining activity at 3.75 µM in assay [1] (Well no.=7652) was 97.2%. In assay [2] (Well no.=7652), the remaining activity at 1.25 µM came out at 98%.
Regarding `CCn1cnc2c(Nc3cccc(Cl)c3)nc(N[C@@H]3CCCC[C@@H]3N)nc21` [CGP-74514A hydrochloride], the remaining activity at 3.75 µM in assay [1] (Well no.=268) is 94.1%. Moreover, the remaining activity at 1.25 µM in assay [2] (Well no.=268) is 92.8%.
As to `COc1ccc(-n2[nH]c3c(cnc4ccccc43)c2=O)cc1` [CGS 9895], the remaining activity at 3.75 µM in assay [1] (Well no.=5590) was 96.5%. The remaining activity at 1.25 µM in assay [2] (Well no.=5590) stood at 99.6%.
In the case of `CCNC(=O)[C@H]1O[C@@H](n2cnc3c(N)nc(NCCc4ccc(CCC(=O)O)cc4)nc32)[C@H](O)[C@@H]1O` [CGS 21680 (Hydrochloride)], the remaining activity at 3.75 µM was 95.1% in assay [1] (Well no.=7001) and 94.7% in assay [1] (Well no.=8417). For the same molecule, the remaining activity at 1.25 µM stood at 99.7% in assay [2] (Well no.=7001) and 95.9% in assay [2] (Well no.=8417).
For `CN1CCN(c2nc3cc(C(F)(F)F)ccc3n3cccc23)CC1` [CGS-12066A maleate], in assay [1] (Well no.=437), the remaining activity at 3.75 µM came to 101%. The remaining activity at 1.25 µM in assay [2] (Well no.=437) is 102%.
Take `Nc1nc2ccc(Cl)cc2c2nc(-c3ccco3)nn12` [CGS-15943]: in assay [1] (Well no.=393), the remaining activity at 3.75 µM came to 104%. Further, the remaining activity at 1.25 µM in assay [2] (Well no.=393) came to 104%.
Turning to `CCNC(=O)[C@H]1O[C@@H](n2cnc3c(N)nc(NCCc4ccc(CCC(=O)O)cc4)nc32)[C@H](O)[C@@H]1O` [CGS-21680 hydrochloride], in assay [1] (Well no.=391), the remaining activity at 3.75 µM was 99.7%. For the same molecule, the remaining activity at 1.25 µM in assay [2] (Well no.=391) is 105%.
As for `CS(=O)(=O)N1CCc2c(-c3cnc(N)nc3)nc(N3CCOCC3)nc21` [CH5132799], the remaining activity at 3.75 µM in assay [1] (Well no.=5348) amounted to 96%. Besides, the remaining activity at 1.25 µM in assay [2] (Well no.=5348) came to 95.8%.
On to `NC(=O)CCCSc1nc(N)nc(-c2c(Cl)cc3c4c(cccc24)COC3)n1` [CH5138303], for which the remaining activity at 3.75 µM in assay [1] (Well no.=8668) is 90.8%. In assay [2] (Well no.=8668), the remaining activity at 1.25 µM amounted to 95%.
Consider `CCc1cc2c(cc1N1CCC(N3CCOCC3)CC1)C(C)(C)c1[nH]c3cc(C#N)ccc3c1C2=O` [CH5424802], for which, in assay [1] (Well no.=5077), the remaining activity at 3.75 µM was 104%. In addition, the remaining activity at 1.25 µM in assay [2] (Well no.=5077) came out at 104%.
`CC[C@H](C)[C@H](NC(=O)OCc1ccccc1)C(=O)N[C@@H](CCC(=O)O)C(=O)N1CCC[C@H]1C(=O)N[C@@H](Cc1ccccc1)C(=O)OC` [CH 5450] (Cbz-IEPF-OMe): the remaining activity at 3.75 µM in assay [1] (Well no.=8516) is 102%. Also, the remaining activity at 1.25 µM in assay [2] (Well no.=8516) came out at 101%.
For the molecule `Cc1ccccc1N=Nc1ccc(NC(=O)c2ccnn2C)c(C)c1` [CH-223191], the results for the remaining activity at 3.75 µM in assay [1] (Well no.=5835) and in assay [1] (Well no.=7892) were 98.7% and 95.5%, respectively. For the same molecule, the remaining activity at 1.25 µM in assay [2] (Well no.=5835) was found to be 97.1%; in assay [2] (Well no.=7892), 99.1%.
Take `Cc1cnc(-c2cnc(NCCNc3ccc(C#N)cn3)nc2-c2ccc(Cl)cc2Cl)[nH]1` [CHIR99021]: in assay [1] (Well no.=5511), the remaining activity at 3.75 µM turned out to be 101%. The remaining activity at 1.25 µM in assay [2] (Well no.=5511) stood at 99.8%.
For the molecule `O=c1[nH]c2ccc(Cl)cc2c(N[C@@H]2CN3CCC2CC3)c1-c1nc2ccccc2[nH]1` [CHIR-124], the remaining activity at 3.75 µM in assay [1] (Well no.=5338) was determined as 97.2%. The remaining activity at 1.25 µM in assay [2] (Well no.=5338) turned out to be 96.2%.
For `CN1CCN(c2ccc3nc(-c4c(N)c5c(F)cccc5[nH]c4=O)[nH]c3c2)CC1` [CHIR-258], the remaining activity at 3.75 µM in assay [1] (Well no.=2757) was 95.3%. Further, the remaining activity at 1.25 µM in assay [2] (Well no.=2757) was 96.4%.
As to `Nc1nc(NCCNc2ncc(-n3ccnc3)c(-c3ccc(Cl)cc3Cl)n2)ccc1[N+](=O)[O-]` [CHIR-98014], in assay [1] (Well no.=5035), the remaining activity at 3.75 µM was determined as 96.8%. The remaining activity at 1.25 µM in assay [2] (Well no.=5035) amounted to 101%.
As for `CC(=O)Nc1ccc(C(=O)Nc2ccccc2N)cc1` [CI994 (Tacedinaline)], the remaining activity at 3.75 µM in assay [1] (Well no.=5165) worked out at 101%. Besides, in assay [2] (Well no.=5165), the remaining activity at 1.25 µM was 103%.

Values taken from article PMC8286840, “Identifying SARS-CoV-2 antiviral compounds by screening for small molecule inhibitors of Nsp3 papain-like protease” (Biochemical Journal, 2021).
